From paper PMC5241706, “Biochemical and Structural Characterization of Selective Allosteric Inhibitors of the Plasmodium falciparum Drug Target, Prolyl-tRNA-synthetase” (ACS Infectious Diseases, 2016)
Read-outs that look alike come from different tables or passages of the source. Values belong to the compound of their own block, whether it stands above or below them.

Columns and labels:
HsProRS = target: T1, HsProRS (Homo sapiens, UniProt P07814); assay: luciferase ATP depletion assay, counter-screen; format: biochemical; conditions: read-out: Percentage inhibition Hs ProRS; for inhibition at 2.5 µM: at 2.50 μM (22.50 μM series); for inhibition at 7.5 µM: at 7.50 μM; for inhibition at 22.5 µM: at 22.50 μM
T1 construct: made in house
T1 sequence (P07814 1007-1512 limits assumed): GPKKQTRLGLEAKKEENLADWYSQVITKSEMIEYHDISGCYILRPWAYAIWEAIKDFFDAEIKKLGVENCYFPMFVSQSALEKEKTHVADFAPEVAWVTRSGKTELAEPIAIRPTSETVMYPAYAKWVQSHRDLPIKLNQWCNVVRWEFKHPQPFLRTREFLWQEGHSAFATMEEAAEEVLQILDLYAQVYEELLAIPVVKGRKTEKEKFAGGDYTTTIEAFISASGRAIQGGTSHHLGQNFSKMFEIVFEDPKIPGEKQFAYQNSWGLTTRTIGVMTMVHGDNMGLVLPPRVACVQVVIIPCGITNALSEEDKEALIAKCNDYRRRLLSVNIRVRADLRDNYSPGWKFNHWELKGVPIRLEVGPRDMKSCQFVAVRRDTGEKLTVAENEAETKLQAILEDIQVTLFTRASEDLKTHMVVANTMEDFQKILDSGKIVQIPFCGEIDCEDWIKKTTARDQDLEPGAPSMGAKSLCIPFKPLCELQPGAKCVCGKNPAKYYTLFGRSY

PfProRS [1] = target: T2, PfProRS (Plasmodium falciparum, UniProt Q8I5R7); assay: luciferase ATP depletion assay, HTS format; format: biochemical; conditions: read-out: Percentage inhibition Pf ProRS
T2 construct: B2, AA7–746 (minus 6 amino acids, or 99% of the ORF); made in house; host or cells: E. coli BL21(DE3)R3 Rosetta Oxford
T2 sequence (Q8I5R7 7-746): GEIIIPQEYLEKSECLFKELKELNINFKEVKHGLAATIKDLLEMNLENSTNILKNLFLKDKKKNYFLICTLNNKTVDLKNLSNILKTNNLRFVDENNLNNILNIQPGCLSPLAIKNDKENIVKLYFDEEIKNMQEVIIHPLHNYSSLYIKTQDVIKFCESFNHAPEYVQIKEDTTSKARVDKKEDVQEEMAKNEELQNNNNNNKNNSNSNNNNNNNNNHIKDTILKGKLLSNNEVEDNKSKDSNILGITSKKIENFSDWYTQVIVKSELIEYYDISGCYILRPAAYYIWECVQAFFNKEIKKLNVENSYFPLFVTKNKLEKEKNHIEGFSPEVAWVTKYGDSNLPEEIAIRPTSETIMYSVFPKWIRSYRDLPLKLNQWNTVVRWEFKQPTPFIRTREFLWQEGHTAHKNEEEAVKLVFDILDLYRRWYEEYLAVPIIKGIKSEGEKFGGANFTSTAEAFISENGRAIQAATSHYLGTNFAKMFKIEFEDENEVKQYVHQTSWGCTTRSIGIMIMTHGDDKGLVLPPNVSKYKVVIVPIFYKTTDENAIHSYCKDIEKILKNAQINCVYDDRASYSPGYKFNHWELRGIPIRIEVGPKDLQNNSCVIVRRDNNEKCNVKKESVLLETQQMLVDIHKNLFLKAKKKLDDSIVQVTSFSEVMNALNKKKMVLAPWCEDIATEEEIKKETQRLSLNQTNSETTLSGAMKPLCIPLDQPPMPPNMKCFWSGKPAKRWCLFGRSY

[2] = tested on: Plasmodium falciparum strain 3D7; assay: Plasmodium falciparum growth inhibition, SYBR green fluorescence; format: cell-based; conditions: P. falciparum 3D7, read-out: potency range (drug control)
PfProRS [3] = target: T2, PfProRS; assay: biochemical; format: biochemical; conditions: read-out: Pf ProRS IC50

Compound: CCn1nc(-c2ccc(C(=O)OC)cc2)nc2c(=O)n(C)c(=O)nc1-2 [MMV306025]
inhibition at 0.03 µM (HsProRS; at 0.03 μM (MMV306025 series)): 0.3%
inhibition at 0.06 µM (HsProRS; at 0.06 μM): -0.07%
inhibition at 0.12 µM (HsProRS; at 0.12 μM (MMV306025 series)): 0.1%
inhibition at 0.23 µM (HsProRS; at 0.23 μM): 0.67%
inhibition at 0.47 µM (HsProRS; at 0.47 μM): 4.1%
inhibition at 0.94 µM (HsProRS; at 0.94 μM): 14.9%
inhibition at 1.88 µM (HsProRS; at 1.88 μM): 21.6%
inhibition at 0.03 µM (PfProRS [1]): -0.55%
inhibition at 0.06 µM (PfProRS [1]): -0.04%
inhibition at 0.12 µM (PfProRS [1]): 0.62%
inhibition at 0.23 µM (PfProRS [1]): 4.5%
inhibition at 0.47 µM (PfProRS [1]): 21.8%
inhibition at 0.94 µM (PfProRS [1]): 28.4%
inhibition at 1.88 µM (PfProRS [1]): 30%
inhibition at 2.5 µM (PfProRS [1]): 72.8%

Compound: OC(c1cc(C(F)(F)F)nc2c(C(F)(F)F)cccc12)C1CCCCN1 (stereo not drawn) [Mefloquine, reference compound]
EC50 [2]: 30 to 60 nM

Compound: CCCc1nc2c(C)cc(-c3nc4ccccc4n3C)cc2n1Cc1ccc(-c2ccccc2C(=O)O)cc1 [telmisartan]
inhibition at 0.73 µM (HsProRS; at 0.73 μM): 0.44%
inhibition at 1.46 µM (HsProRS; at 1.46 μM (750 μM series)): 0.05%
inhibition at 2.93 µM (HsProRS; at 2.93 μM): 0.04%
inhibition at 5.86 µM (HsProRS; at 5.86 μM): -0.1%
inhibition at 11.72 µM (HsProRS; at 11.72 μM): 0.01%
inhibition at 23.44 µM (HsProRS; at 23.44 μM): 0%
inhibition at 46.88 µM (HsProRS; at 46.88 μM): -0.02%
inhibition at 93.75 µM (HsProRS; at 93.75 μM): 0.37%
inhibition at 187.5 µM (HsProRS; at 187.50 μM): 4.23%
inhibition at 375 µM (HsProRS; at 375 μM): 0.25%
inhibition at 750 µM (HsProRS; at 750 μM): 0.58%
inhibition at 0.73 µM (PfProRS [1]): -0.36%
inhibition at 1.46 µM (PfProRS [1]): -0.06%
inhibition at 2.93 µM (PfProRS [1]): -0.17%
inhibition at 5.86 µM (PfProRS [1]): -0.08%
inhibition at 11.72 µM (PfProRS [1]): 2.19%
inhibition at 23.44 µM (PfProRS [1]): 3.94%
inhibition at 46.88 µM (PfProRS [1]): 13.4%
inhibition at 93.75 µM (PfProRS [1]): 48.8%
inhibition at 187.5 µM (PfProRS [1]): 80.8%
inhibition at 375 µM (PfProRS [1]): 15.5%
inhibition at 750 µM (PfProRS [1]): 11.8%

Compound: O=C(CCn1cncn1)N1CCCC(c2[nH]c3ccccc3c2-c2ccncc2)C1 (stereo not drawn) [TCMDC-125377]
inhibition at 0.03 µM (HsProRS; at 0.03 μM (22.50 μM series)): 0.18%
inhibition at 0.09 µM (HsProRS): -0.1%
inhibition at 0.28 µM (HsProRS): -0.22%
inhibition at 0.83 µM (HsProRS): -0.91%
inhibition at 2.5 µM (HsProRS): -0.37%
inhibition at 7.5 µM (HsProRS): 0.2%
inhibition at 22.5 µM (HsProRS): 0.03%
inhibition at 0.28 µM (PfProRS [1]): 6.8%
inhibition at 0.03 µM (PfProRS [1]): 1.17%
inhibition at 0.09 µM (PfProRS [1]): 2.41%
inhibition at 0.83 µM (PfProRS [1]): 15.4%
inhibition at 2.5 µM (PfProRS [1]): 24.7%
inhibition at 7.5 µM (PfProRS [1]): 33.9%
inhibition at 22.5 µM (PfProRS [1]): 40.1%

Compound: CCCCC(N)COc1cccc2c(-c3ccncc3)c(-c3cccc(NC(=O)Nc4ccccc4)c3)nn12 (stereo not drawn) [TCMDC-135537]
inhibition at 0.03 µM (HsProRS; at 0.03 μM (22.50 μM series)): -0.2%
inhibition at 0.09 µM (HsProRS): -0.49%
inhibition at 0.28 µM (HsProRS): 0.03%
inhibition at 0.83 µM (HsProRS): 0.8%
inhibition at 2.5 µM (HsProRS): 0%
inhibition at 7.5 µM (HsProRS): 0.28%
inhibition at 22.5 µM (HsProRS): 0.55%
inhibition at 0.28 µM (PfProRS [1]): -1.18%
inhibition at 0.03 µM (PfProRS [1]): -1.72%
inhibition at 0.09 µM (PfProRS [1]): -1.11%
inhibition at 0.83 µM (PfProRS [1]): 1.73%
inhibition at 2.5 µM (PfProRS [1]): 11.7%
inhibition at 7.5 µM (PfProRS [1]): 39%
inhibition at 22.5 µM (PfProRS [1]): 84.8%

IC50 (PfProRS [3]): > 50000 nM
Compound: Cn1nc(C(F)(F)F)c(-c2ccccc2CCO)c1NC(=O)Nc1ccc(F)cc1 [Compound 14]

Compound: N[C@@H](COc1cccc2c(-c3ccncc3)c(-c3cccc(NC(=O)Nc4ccccc4)c3)nn12)c1ccccc1 [TCMDC-135512]
inhibition at 0.03 µM (HsProRS; at 0.03 μM (22.50 μM series)): -0.42%
inhibition at 0.09 µM (HsProRS): 0.03%
inhibition at 0.28 µM (HsProRS): -0.52%
inhibition at 0.83 µM (HsProRS): -0.24%
inhibition at 2.5 µM (HsProRS): -0.12%
inhibition at 7.5 µM (HsProRS): -0.42%
inhibition at 22.5 µM (HsProRS): -0.2%
inhibition at 0.28 µM (PfProRS [1]): 2.37%
inhibition at 0.03 µM (PfProRS [1]): 1.13%
inhibition at 0.09 µM (PfProRS [1]): 2.63%
inhibition at 0.83 µM (PfProRS [1]): 3.62%
inhibition at 2.5 µM (PfProRS [1]): 11.8%
inhibition at 7.5 µM (PfProRS [1]): 40.4%
inhibition at 22.5 µM (PfProRS [1]): 56.8%
